The values below come from ChEMBL document CHEMBL1201862, “PubChem BioAssay data set” (2004).

Each structure is given as a SMILES string. “And” between values parts separate entries of the source, which are not always exact repeats. Equal values may be shown once. The source made the active and inactive calls.

For one test, the target named is T1, Protein RecA (Mycobacterium tuberculosis, UniProt P9WHJ3).
T1 sequence (P9WHJ3 whole entry): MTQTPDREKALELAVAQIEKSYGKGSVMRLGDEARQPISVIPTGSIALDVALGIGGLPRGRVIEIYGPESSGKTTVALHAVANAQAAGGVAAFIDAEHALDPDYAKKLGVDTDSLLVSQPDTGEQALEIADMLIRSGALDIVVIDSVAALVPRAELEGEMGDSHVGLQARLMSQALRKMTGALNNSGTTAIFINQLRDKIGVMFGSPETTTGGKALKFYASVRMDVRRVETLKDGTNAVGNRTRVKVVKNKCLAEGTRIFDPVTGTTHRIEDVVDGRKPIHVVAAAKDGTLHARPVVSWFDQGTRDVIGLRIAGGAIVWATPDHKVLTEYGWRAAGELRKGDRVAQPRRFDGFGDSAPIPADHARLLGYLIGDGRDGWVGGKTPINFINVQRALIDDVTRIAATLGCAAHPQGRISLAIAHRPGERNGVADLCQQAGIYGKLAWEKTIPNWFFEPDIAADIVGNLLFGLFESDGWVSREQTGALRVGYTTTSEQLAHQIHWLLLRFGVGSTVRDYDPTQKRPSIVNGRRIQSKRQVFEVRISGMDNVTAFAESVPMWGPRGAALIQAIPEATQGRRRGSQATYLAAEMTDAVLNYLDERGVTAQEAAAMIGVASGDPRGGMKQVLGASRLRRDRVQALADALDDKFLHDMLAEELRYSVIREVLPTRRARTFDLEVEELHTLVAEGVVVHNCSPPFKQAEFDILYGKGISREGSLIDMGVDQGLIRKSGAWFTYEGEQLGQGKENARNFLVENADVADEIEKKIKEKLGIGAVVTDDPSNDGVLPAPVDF
The test can be described thus: Fluorescence Cell-Free Homogeneous Dose Retest to Identify Inhibitors of RecA-Intein Splicing Activity. [Related pubchem assays (depositor defined):AID2097, AID2223, AID489010, AID492950]. It counts as functional.

For test [1], the target named is T2, Replicative DNA helicase DnaB (Mycobacterium tuberculosis, UniProt P9WMR3).
T2 sequence (P9WMR3 whole entry): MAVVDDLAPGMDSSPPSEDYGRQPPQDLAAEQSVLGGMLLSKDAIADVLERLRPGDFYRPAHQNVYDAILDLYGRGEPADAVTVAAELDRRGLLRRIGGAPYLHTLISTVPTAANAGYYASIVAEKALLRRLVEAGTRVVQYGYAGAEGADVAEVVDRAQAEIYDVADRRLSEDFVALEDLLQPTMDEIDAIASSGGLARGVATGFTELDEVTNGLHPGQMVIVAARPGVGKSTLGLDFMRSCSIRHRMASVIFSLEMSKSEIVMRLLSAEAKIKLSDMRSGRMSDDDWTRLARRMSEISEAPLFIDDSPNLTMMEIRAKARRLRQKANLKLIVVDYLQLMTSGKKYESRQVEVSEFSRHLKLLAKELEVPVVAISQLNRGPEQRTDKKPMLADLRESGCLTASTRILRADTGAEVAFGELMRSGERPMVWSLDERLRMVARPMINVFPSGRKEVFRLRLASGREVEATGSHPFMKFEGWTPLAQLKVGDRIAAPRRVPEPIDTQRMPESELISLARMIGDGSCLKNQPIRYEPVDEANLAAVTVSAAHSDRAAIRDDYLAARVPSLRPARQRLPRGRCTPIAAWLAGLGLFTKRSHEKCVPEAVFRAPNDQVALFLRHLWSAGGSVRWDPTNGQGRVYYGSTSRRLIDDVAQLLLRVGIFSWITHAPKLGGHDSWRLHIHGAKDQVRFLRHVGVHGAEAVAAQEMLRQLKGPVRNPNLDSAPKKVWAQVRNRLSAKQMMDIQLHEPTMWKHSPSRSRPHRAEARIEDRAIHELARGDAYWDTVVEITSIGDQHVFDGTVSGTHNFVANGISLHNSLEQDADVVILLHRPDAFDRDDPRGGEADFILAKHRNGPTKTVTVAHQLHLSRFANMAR
The test can be described thus: DnaB intein splicing inhibitors, dose response, biochemical, cell-free fluorescence (AID 449749). It counts as functional.

In test [2] the target is Heat shock protein HSP 90-alpha (Homo sapiens, UniProt P07900). Type of test: functional, organism-based.
For a further test, the target named is T3, Exodeoxyribonuclease V (Escherichia coli (strain K12), UniProt P04993+P07648+P08394).
T3 sequence (P04993 whole entry): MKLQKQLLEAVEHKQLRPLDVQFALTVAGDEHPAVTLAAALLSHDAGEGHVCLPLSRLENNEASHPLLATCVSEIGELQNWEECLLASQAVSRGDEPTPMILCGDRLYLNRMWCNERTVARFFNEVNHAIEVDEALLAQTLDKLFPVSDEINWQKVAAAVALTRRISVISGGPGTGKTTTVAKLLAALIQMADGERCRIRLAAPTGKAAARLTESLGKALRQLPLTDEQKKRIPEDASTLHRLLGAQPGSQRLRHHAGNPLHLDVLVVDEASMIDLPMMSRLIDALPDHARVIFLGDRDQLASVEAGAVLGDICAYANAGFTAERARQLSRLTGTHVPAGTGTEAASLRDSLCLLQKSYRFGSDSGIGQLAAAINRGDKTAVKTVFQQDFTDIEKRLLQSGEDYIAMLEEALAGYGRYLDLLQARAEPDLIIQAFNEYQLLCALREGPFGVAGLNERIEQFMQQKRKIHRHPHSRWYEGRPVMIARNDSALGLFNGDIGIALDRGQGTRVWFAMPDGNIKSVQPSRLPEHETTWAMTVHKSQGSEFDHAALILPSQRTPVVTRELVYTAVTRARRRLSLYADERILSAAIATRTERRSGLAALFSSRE
T3 sequence (P07648 whole entry): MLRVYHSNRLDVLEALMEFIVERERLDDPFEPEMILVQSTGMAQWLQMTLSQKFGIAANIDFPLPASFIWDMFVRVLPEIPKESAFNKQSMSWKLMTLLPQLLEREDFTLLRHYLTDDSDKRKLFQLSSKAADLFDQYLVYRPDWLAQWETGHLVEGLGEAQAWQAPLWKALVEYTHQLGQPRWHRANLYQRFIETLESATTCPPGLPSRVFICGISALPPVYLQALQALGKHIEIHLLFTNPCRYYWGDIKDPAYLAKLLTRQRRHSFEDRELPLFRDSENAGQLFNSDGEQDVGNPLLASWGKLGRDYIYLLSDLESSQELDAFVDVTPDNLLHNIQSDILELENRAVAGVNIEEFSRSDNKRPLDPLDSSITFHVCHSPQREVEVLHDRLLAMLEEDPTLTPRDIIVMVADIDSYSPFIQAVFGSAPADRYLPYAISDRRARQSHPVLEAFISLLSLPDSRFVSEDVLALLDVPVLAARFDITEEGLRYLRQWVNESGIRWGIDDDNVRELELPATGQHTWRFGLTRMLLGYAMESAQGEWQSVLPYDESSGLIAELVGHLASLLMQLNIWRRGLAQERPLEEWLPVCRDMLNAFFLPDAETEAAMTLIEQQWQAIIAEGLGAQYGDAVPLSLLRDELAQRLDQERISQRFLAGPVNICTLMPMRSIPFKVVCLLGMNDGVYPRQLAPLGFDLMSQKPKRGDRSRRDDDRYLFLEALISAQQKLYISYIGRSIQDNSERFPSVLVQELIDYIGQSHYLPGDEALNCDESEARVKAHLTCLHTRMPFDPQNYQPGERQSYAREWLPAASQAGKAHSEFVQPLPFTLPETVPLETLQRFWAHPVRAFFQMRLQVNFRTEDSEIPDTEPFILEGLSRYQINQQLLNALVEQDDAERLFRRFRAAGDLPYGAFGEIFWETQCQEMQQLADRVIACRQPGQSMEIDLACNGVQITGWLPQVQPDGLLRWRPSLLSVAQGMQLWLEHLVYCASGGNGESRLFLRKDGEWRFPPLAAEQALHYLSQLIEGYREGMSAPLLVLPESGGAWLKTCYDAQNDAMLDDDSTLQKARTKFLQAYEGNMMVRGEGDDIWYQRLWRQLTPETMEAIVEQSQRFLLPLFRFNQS
T3 sequence (P08394 whole entry): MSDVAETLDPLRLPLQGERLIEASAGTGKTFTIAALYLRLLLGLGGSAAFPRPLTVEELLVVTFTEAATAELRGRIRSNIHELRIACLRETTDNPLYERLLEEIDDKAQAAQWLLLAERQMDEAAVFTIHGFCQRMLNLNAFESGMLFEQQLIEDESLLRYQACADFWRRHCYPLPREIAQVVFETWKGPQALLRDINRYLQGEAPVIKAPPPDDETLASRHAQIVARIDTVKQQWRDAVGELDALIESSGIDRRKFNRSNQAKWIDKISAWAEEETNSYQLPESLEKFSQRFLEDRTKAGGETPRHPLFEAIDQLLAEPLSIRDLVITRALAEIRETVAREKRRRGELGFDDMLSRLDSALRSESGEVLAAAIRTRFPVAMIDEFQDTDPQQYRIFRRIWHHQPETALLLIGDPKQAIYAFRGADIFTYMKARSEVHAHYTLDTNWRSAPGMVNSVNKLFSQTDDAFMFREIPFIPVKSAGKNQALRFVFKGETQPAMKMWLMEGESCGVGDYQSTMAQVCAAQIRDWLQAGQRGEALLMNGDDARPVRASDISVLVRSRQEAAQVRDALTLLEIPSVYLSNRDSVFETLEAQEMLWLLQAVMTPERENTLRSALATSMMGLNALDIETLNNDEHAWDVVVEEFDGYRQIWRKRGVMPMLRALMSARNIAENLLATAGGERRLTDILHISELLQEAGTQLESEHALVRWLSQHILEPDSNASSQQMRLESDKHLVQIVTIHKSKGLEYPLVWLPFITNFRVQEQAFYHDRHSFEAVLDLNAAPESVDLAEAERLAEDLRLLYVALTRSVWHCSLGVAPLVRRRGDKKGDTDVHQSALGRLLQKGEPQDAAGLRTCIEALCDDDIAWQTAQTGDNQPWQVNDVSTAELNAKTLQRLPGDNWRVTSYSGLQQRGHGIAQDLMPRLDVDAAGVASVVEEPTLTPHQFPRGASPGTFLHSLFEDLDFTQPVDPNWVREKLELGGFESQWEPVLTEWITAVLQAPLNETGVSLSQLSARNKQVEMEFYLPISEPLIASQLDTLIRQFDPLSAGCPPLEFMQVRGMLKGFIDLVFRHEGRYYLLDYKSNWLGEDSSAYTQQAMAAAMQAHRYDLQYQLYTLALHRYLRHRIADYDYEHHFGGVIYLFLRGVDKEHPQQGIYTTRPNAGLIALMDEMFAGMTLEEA
Put plainly: E. coli RecBCD inhibitors, dose response, counter-screen for AddAB inhibitor project, absorbance, V66 E. coli, mutant T4 phage (AID 492957). It counts as functional, cell-based, Escherichia coli str. K-12 substr. MG1655. In general terms: The purpose of a counterscreen is to sort out artefacts and off-target activity.

Test [3] concerns the target T4, High affinity choline transporter 1 (Homo sapiens, UniProt Q9GZV3).
T4 sequence (Q9GZV3 whole entry): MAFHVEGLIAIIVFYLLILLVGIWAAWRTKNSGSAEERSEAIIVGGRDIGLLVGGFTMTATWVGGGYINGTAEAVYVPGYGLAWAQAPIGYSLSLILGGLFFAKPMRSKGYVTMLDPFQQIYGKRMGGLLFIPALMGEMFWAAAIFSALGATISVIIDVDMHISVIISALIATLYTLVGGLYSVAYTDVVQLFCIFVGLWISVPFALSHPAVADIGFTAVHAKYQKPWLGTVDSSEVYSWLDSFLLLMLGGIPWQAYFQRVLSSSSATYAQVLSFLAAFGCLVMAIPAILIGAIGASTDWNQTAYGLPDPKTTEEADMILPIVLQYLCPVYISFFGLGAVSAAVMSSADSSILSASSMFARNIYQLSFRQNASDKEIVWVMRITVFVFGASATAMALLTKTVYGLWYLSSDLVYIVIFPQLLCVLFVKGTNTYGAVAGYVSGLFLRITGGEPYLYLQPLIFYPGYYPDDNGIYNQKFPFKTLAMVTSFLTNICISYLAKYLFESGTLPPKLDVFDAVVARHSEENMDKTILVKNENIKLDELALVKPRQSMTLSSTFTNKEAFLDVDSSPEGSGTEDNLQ
Put plainly: CHT inhibitors, dose response, cell-based, 5-point CRC, membrane potential dye (AID 504840). It counts as functional.

The next test relates to P388. Put plainly: cells. It counts as functional. To be noted: Mus musculus.
For another test, the system named is P388/ADR. The test can be described thus: cells. It counts as functional. To be noted: Mus musculus.
For the next test, the system named is SN12K1. Put plainly: cells. It counts as functional. As to conditions: Homo sapiens.
Test [4] is described as follows: microbe, parasite or virus in culture. Type of test: functional. As to conditions: Mycobacterium tuberculosis.
Test [5] in a line: Luminescence Cell-Based Dose Retest to Confirm Inhibitors of Cancer Stem Cells. [Related pubchem assays (depositor defined):AID2717, AID2721]. To be noted: Homo sapiens. Type of test: functional.

One may read the EC50 as the concentration that produces a half-maximal response. By AC50 is commonly meant the midpoint of the concentration-response curve, whichever way the signal moves. As for `COc1ccc(OC)c(NC(=O)Nc2ccc(O)c3ccccc23)c1`, the EC50 on Protein RecA is 152 nM (active). The AC50 in [1] is 11.5 µM (active); in test [2], 0.434 µM (active).

What is called IC50 is the concentration that inhibits the measured activity by half. As to `CCc1cn([C@H]2C[C@H](O)[C@@H](CO)O2)c(=O)[nH]c1=O` [EDOXUDINE], on Exodeoxyribonuclease V, the IC50 was > 119 µM (inactive) and > 118 µM (inactive).

Take `C=CCn1cc(C(=O)NCCCN(CC)CC)c(=O)c2cc(S(=O)(=O)N3CCC(C)CC3)ccc21`: in test [3], the IC50 was 13.2 µM (active). For orientation: GI50 means the concentration giving 50% growth inhibition. As for `O=C(/C=C/c1ccccc1)CCN1CCOCC1`, the GI50 was 2.81 µM (inactive) with P388, 2.43 µM (inactive) in the test with P388/ADR and 16.5 µM (inactive) in the test with SN12K1. Further, the AC50 in test [2] is 2.94 µM (active). As to `O=C(OCC(=O)C12CC3CC(CC(C3)C1)C2)c1ccc(O)cc1O`, the CC50 in test [4] was > 40 µM (active). Besides, the AC50 in [2] is 24.5 µM (active).

On to `Cc1cccc(C2c3[nH]c4ccccc4c3CCN2C(=O)c2cc3c(nc2O)CCCC3)n1` (stereo not given), for which the IC50 in test [3] was 11.2 µM (active). As to `Oc1cccc(C(O)CNCc2ccc(OCc3ccc(Cl)cc3Cl)cc2)c1` (stereo not given), the AC50 in test [5] is 3.69 µM (active). Further, in test [3], the IC50 is 1.82 µM (active). For the compound `Cc1ccc(S(=O)(=O)Oc2ccc(/C=C3/C(=N)N4C(=NC3=O)SN=C4S(C)(=O)=O)cc2)cc1`, in test [3], the IC50 was 13.8 µM (active).
